Test results: patent publication US8722849B2, “Polypeptides” (Novo Nordisk A/S, priority 2011, dated 2014)
Values after ≈ are worked out from the molar mass of the structure shown. Like-named read-outs stand apart in the source and are kept apart here. Each block holds one compound with its values, some of them ahead of it. Starred links: 1 amine or outer side, 2 acyl side, 3 side chain; linkers in the order of their positions; H or OH if unused. Positions of bridges follow the written chain, without caps; N, C: chain ends. Non-standard residues stand in square brackets, D forms with d. Residues, ends and D or L forms follow the SMILES beside them. *: point of attachment. C20 diacid = O=C(O)CCCCCCCCCCCCCCCCCCC(=O)*; γGlu = O=C(O)[C@H](CCC(=O)[*:2])N[*:1]; AEEA = NCCOCCOCC(=O)O

What was measured:
[1] = molecular target: T1, rat amylin 3(a) receptor (rat calcitonin(a) receptor + rat RAMP3) (Rattus norvegicus, UniProt P32214+Q9JJ73); test: Assay (II)b functional cAMP FlashPlate assay, rat amylin receptor; format: cell-based; conditions: Table 11
T1 construct: expressed in transfected cells; host or cells: BHK tk'ts 13
T1 sequence (P32214 25-479 isoform P32214-2 limits assumed): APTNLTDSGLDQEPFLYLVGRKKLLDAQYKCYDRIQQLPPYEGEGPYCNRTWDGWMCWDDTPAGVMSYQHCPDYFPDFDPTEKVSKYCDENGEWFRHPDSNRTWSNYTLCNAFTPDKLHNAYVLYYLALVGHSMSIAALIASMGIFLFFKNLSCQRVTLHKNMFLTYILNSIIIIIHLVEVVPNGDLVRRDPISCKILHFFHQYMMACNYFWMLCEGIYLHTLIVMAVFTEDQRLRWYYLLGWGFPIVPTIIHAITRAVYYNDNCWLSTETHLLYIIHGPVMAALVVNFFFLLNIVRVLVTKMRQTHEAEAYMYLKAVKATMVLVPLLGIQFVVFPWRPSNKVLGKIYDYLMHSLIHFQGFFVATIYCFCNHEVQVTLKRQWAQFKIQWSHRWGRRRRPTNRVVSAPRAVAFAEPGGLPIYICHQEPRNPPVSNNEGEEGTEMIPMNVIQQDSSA
T1 sequence (Q9JJ73 23-147 partner): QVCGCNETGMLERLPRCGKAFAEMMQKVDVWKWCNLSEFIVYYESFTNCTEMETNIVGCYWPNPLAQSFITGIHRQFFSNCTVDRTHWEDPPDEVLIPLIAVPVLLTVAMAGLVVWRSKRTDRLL
Description: (§1) Assay (II)b—Rat Calcitonin and Rat Amylin Receptor Assays
(§2) Activation of calcitonin and amylin (coexpression of calcitonin receptor and receptor activity modifying proteins (RAMP)) receptors lead to increased intracellular concentrations of cAMP. In order to quantify the cAMP levels in transiently transfected cells the Adenylyl Cyclase Activation FlashPlate® Assay from […] was used. The basic principle of the FlashPlate® Assay is a competition between radioactive and non-radioactive cAMP generated by the cells for a fixed number of binding sites.
(§3) Construction of rat calcitonin(a)—and rat amylin 3(a)-receptor cells.
(§4) BHK tk'ts 13 cells were transiently transfected with either rat calcitonin (a) receptor or amylin 3 (a) receptor (rat calcitonin(a) receptor+ rat RAMP3) using FuGENE® 6 (ROCHE), according to the manufacturers recommendations.
(§5) 24 hours after transient transfection the cells (rat calcitonin(a)—or rat amylin 3(a)—receptor cells) were added (100.000 cells/well) to the 96 well FlashPlates® with samples or standard in FlashPlate stimulation buffer with IBMX and incubated for 30 min. Detection mix was created according to manufacturers protocol and scintillation measured after 3 h of incubation on TopCounter™ (Packard).

[2] = Assay (IV) determination of solubility; format: physicochemical
Procedure, shortened: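 Polypeptide in water (~500 nmol/ml stock) was mixed 1:1 with 100 mM buffers from pH 3.0 to 8.0 (glycylglycine pH 3.0–5.0; bistrispropane pH 6.0–8.0). After 18 hours at room temperature, samples were centrifuged and the polypeptide remaining in solution was quantified by HPLC.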

[3] = molecular target: T2, human amylin receptor (amylin 3(a) receptor: human calcitonin receptor + RAMP-3) (Homo sapiens, UniProt O60896+P30988); test: Assay (II)a functional CRE-luciferase assay, human amylin receptor; format: cell-based
T2 construct: expressed in transfected cells; host or cells: BHK570
T2 sequence (P30988 25-474): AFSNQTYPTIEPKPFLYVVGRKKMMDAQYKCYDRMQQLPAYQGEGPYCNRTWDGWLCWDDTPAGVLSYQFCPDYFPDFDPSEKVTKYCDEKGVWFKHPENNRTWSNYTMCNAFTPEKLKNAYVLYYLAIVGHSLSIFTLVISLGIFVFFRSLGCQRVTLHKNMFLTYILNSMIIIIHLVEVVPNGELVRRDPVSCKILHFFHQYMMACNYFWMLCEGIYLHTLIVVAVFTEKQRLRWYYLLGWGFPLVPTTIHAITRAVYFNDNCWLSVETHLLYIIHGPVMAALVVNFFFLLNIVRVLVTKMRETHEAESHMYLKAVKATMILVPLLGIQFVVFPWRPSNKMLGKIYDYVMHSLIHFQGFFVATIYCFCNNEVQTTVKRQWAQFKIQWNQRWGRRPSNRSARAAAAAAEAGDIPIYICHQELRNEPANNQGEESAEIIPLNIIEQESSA
T2 sequence (O60896 24-148 partner): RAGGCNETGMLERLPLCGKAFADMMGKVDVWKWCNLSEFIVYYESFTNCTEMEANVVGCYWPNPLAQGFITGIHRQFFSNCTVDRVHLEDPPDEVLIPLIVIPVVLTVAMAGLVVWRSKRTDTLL

[4] = molecular target: T3, rat calcitonin (a) receptor (Rattus norvegicus, UniProt P32214); test: Assay (II)b functional cAMP FlashPlate assay, rat calcitonin receptor; format: cell-based; conditions: Table 11; read-out: CTa receptor rat EC50
T3 construct: expressed in transfected cells; host or cells: BHK tk'ts 13
T3 sequence (P32214 25-479 isoform P32214-2 limits assumed): T1 sequence (P32214 25-479 isoform P32214-2 limits assumed)
Description: as §1, §2, §3, §4, §5

[5] = molecular target: T4, human calcitonin receptor (Homo sapiens, UniProt P30988); test: Assay (II)a functional CRE-luciferase assay, human calcitonin receptor; format: cell-based
T4 construct: expressed in transfected cells; host or cells: BHK570
T4 sequence (P30988 25-474): T2 sequence (P30988 25-474)

[6] = Table 2, BHK amylin 3(a)-receptor/CRE-luc cells
[7] = Table 7, human calcitonin (CTa) receptor

EC50 [1]: 0.132 nM
solubility at 18 h ([2]; bistrispropane buffer, pH 6, pH 6.0, read-out: Solubility pH 6.0): 175 µM (≈ 819 µg/mL)
solubility at 18 h ([2]; bistrispropane buffer, pH 6.5, pH 6.5, read-out: Solubility pH 6.5): 35 µM (≈ 164 µg/mL)
solubility at 18 h ([2]; bistrispropane buffer, pH 7, pH 7.0, read-out: Solubility pH 7.0): 6 µM (≈ 28.1 µg/mL)
solubility at 18 h ([2]; bistrispropane buffer, pH 7.5, pH 7.5, read-out: Solubility pH 7.5): 61 µM (≈ 285 µg/mL)
solubility at 18 h ([2]; bistrispropane buffer, pH 8, pH 8.0, read-out: Solubility pH 8.0): 158 µM (≈ 739 µg/mL)
solubility at 18 h ([2]; glycylglycine buffer, pH 3, pH 3.0, read-out: Solubility pH 3.0): > 200 µM
solubility at 18 h ([2]; glycylglycine buffer, pH 4, pH 4.0, 18 hours at room temperature, Table 2, read-out: Solubility pH 4.0): > 200 µM
solubility at 18 h ([2]; glycylglycine buffer, pH 4, pH 4.0, read-out: Solubility pH 4.0): > 200 µM
solubility at 18 h ([2]; glycylglycine buffer, pH 5, pH 5.0, read-out: Solubility pH 5.0): 155 µM (≈ 725 µg/mL)
EC50 [3, 6]: 0.105 nM
EC50 [4]: 0.824 nM
EC50 [5, 7]: 0.31 nM
Compound: CC(C)C[C@H](NC(=O)[C@H](CCCNC(=N)N)NC(=O)[C@H](CCC(N)=O)NC(=O)[C@@H](NC(=O)[C@H](C)NC(=O)[C@@H]1CSSC[C@H](NC(=O)[C@H](Cc2c[nH]cn2)NC(=O)[C@H](Cc2c[nH]cn2)NC(=O)[C@H](Cc2c[nH]cn2)NC(=O)CC[C@H](NC(=O)CCCCCCCCCCCCCCCCCCC(=O)O)C(=O)O)C(=O)N[C@@H](CC(N)=O)C(=O)N[C@@H]([C@@H](C)O)C(=O)N[C@@H](C)C(=O)N[C@@H]([C@@H](C)O)C(=O)N1)[C@@H](C)O)C(=O)N[C@@H](C)C(=O)N[C@@H](CCC(=O)O)C(=O)N[C@@H](Cc1ccccc1)C(=O)N[C@@H](CC(C)C)C(=O)N[C@@H](Cc1c[nH]cn1)C(=O)N[C@@H](Cc1c[nH]cn1)C(=O)N[C@@H](CO)C(=O)N[C@@H](CO)C(=O)N[C@@H](CC(N)=O)C(=O)N[C@@H](CC(N)=O)C(=O)N[C@@H](Cc1ccccc1)C(=O)NCC(=O)N[C@@H](C)C(=O)N1CCC[C@H]1C(=O)N[C@@H](CC(C)C)C(=O)N[C@@H](CO)C(=O)N[C@@H](CO)C(=O)N[C@H](C(=O)N[C@@H](CC(N)=O)C(=O)N[C@H](C(=O)NCC(=O)N[C@@H](CO)C(=O)N[C@@H](CC(N)=O)C(=O)N[C@H](C(=O)N[C@@H](Cc1ccc(O)cc1)C(N)=O)[C@@H](C)O)C(C)C)[C@@H](C)O [Example 19, N-alpha-[(S)-4-Carboxy-4-(19-carboxynonadecanoylamino)butyryl]-His-His-[His1,Glu14,His17,Ala25,Pro26,Ser28,Ser29]-pramlintide] ({C20 diacid-γGlu}-HHHCNTATCATQRLAEFLHHSSNNFGAPLSSTNVGSNTY-NH2; disulfide 4-9 (inferred); C-terminus assumed)

EC50 [1]: 0.132 nM
solubility ([2]; pH 3, pH 3.0, read-out: Solubility pH 3.0): > 200 µM
solubility ([2]; pH 4, pH 4.0, 18 hours at room temperature, Table 2, read-out: Solubility pH 4.0): > 200 µM
solubility ([2]; pH 4, pH 4.0, read-out: Solubility pH 4.0): > 200 µM
solubility ([2]; pH 5, pH 5.0, read-out: Solubility pH 5.0): > 200 µM
solubility ([2]; pH 6, pH 6.0, read-out: Solubility pH 6.0): > 200 µM
solubility at 18 h ([2]; pH 6.5, read-out: Solubility pH 6.5): 124 µM (≈ 630 µg/mL)
Solubility pH 7.0 (μM) ([2]; pH 7.0, 18 hours at room temperature, Table 3): 198 μM
solubility at 18 h ([2]; pH 7.0, Table 8, read-out: Solubility pH 7.0): 198 µM (≈ 1010 µg/mL)
solubility at 18 h ([2]; pH 7.0, read-out: Solubility pH 7.0): 198 µM (≈ 1010 µg/mL)
solubility ([2]; pH 7.5, pH 7.5, read-out: Solubility pH 7.5): > 200 µM
solubility ([2]; pH 8, pH 8.0, read-out: Solubility pH 8.0): > 200 µM
EC50 [3, 6]: 0.0832 nM
EC50 ([3]; Table 3, BHK amylin 3(a)-receptor/CRE-luc cells): 0.0832 nM
EC50 ([3]; Table 4): 0.0832 nM
EC50 ([3]; Table 5): 0.0832 nM
EC50 ([3]; Table 6, human amylin receptor): 0.0832 nM
EC50 ([3]; Table 7, human amylin receptor): 0.0832 nM
EC50 ([3]; Table 8): 0.0832 nM
EC50 ([3]; Table 11): 0.0832 nM
EC50 [4]: 1.89 nM
EC50 [5, 7]: 0.642 nM
EC50 ([5]; Table 11, read-out: CTa receptor human EC50): 0.642 nM
Compound: CC[C@H](C)[C@H](NC(=O)[C@@H]1CCCN1C(=O)CNC(=O)[C@H](Cc1ccccc1)NC(=O)[C@H](CC(N)=O)NC(=O)[C@H](CC(N)=O)NC(=O)[C@H](CO)NC(=O)[C@H](CO)NC(=O)[C@H](CCCNC(=N)N)NC(=O)[C@H](Cc1cnc[nH]1)NC(=O)[C@H](CC(C)C)NC(=O)[C@H](Cc1ccccc1)NC(=O)[C@H](CCC(=O)O)NC(=O)[C@H](C)NC(=O)[C@H](CC(C)C)NC(=O)[C@H](CCCNC(=N)N)NC(=O)[C@H](CCC(N)=O)NC(=O)[C@@H](NC(=O)[C@H](C)NC(=O)[C@@H]1CSSC[C@H](NC(=O)[C@H](CCCCN)NC(=O)[C@@H](CCCNC(=N)N)NC(=O)[C@@H](CCCNC(=N)N)NC(=O)COCCOCCNC(=O)COCCOCCNC(=O)CC[C@H](NC(=O)CCCCCCCCCCCCCCCCCCC(=O)O)C(=O)O)C(=O)N[C@@H](CC(N)=O)C(=O)N[C@@H]([C@@H](C)O)C(=O)N[C@@H](C)C(=O)N[C@@H]([C@@H](C)O)C(=O)N1)[C@@H](C)O)C(=O)N[C@@H](CC(C)C)C(=O)N1CCC[C@H]1C(=O)N1CCC[C@H]1C(=O)N[C@H](C(=O)N[C@@H](CC(N)=O)C(=O)N[C@H](C(=O)NCC(=O)N[C@@H](CO)C(=O)N[C@@H](CC(N)=O)C(=O)N[C@H](C(=O)N[C@@H](Cc1ccc(O)cc1)C(N)=O)[C@@H](C)O)C(C)C)[C@@H](C)O [Example 37, N-alpha-[2-(2-{2-[2-(2-{2-[(S)-4-Carboxy-4-(19-carboxyheptadecanoylamino)butyrylamino]ethoxy}ethoxy)acetylamino]ethoxy}ethoxy)acetyl]-D-Arg-D-Arg-[Glu14,His17,Arg18]-pramlintide] ({C20 diacid-γGlu-AEEA-AEEA}-[dR][dR]KCNTATCATQRLAEFLHRSSNNFGPILPPTNVGSNTY-NH2; disulfide 4-9)
